Literature values in US12144787B2, “Method of treating patients with a mutation in cyclin-dependent kinase-like 5 (CDKL5)” (ZOGENIX INTERNATIONAL LIMITED, priority 2019, dated 2024).

Experiments:
[1] = test system: self-induced photosensitive seizures; settings: four cases; patients staring into bright lights or the sun
[2] = test system: compulsive respiratory stereotypies; settings: open label, 8 children; subset of patients
[3] = test system: pattern sensitivity-induced seizures; settings: one child, seizures resistant to anticonvulsive treatment
[4] = test system: refractory epilepsy with self-induced seizures; settings: children with refractory epilepsy; dose 0.5 to 1 mg/kg/day

## CCNC(C)Cc1cccc(C(F)(F)F)c1 (racemic) [fenfluramine, (RS)—N-ethyl-1-[3-(trifluoromethyl)phenyl]propan-2-amine]
[1]
  response of self-induced photosensitive seizures to treatment: responded to treatment
[2]
  effect on compulsive respiratory stereotypies: some beneficial effects
[3]
  effect on self-induced seizures: successfully terminated these self-induced seizures
[4]
  number of seizures experienced by the patients: reduction in the number of seizures
